Assays:
[1] = tested on: rat models; test: Toxicity in rat models via IV tail injection; format: in vivo
Text: In one embodiment, the R group is an alcohol. Suitable alcohols include ethanol and propanol. For formula 26, n has a value between 1 and 200.

[2] = tested on: ovarian cancer cell line NuTu-19; test: MTT test against ovarian cancer cell line NuTu-19; format: cell-based
Method: In one example, a silver(I) complex as represented in formula 23 has been tested for preliminary anticancer activity against the ovarian cancer cell line NuTu-19. Silver complex 23 was chosen because of its overall stability.
Cells were plated at 5000 cells per well in a 96-well plate. All tests were run in triplicate. Cells were allowed to incubate overnight after plating followed by the addition of a 50 μM solution of 23, cisplatin, and thiaether-RhCl3 dissolved in complete cell media. The cells were then incubated for 72 h followed by the addition of MTT dissolved in phosphate buffered saline (PBS) and incubated for another 4 h. A sodium dodecyl sulfate: 0.01M HCl (SDS) solution was then added and the cells were incubated overnight. The SDS solution is added to solubilize the blue formazan crystals that are formed by the reduction of MTT by living cells. The absorbance is then read on a microplate reader. Therefore, the higher the absorbance the more living cells present in cell colony.

[3] = tested on: A375 melanoma; test: Anti-proliferative effects on A375 melanoma at 96 hours of growth; format: cell-based; conditions: 0.5-25 μm, FIGS. 2 and 3
Method: (§1) The anti-proliferative effects of formula 23, cisplatin and carboplatin were investigated on A375 melanoma at 96 hours of growth and are shown in FIGS. 2 and 3. Percent control growth and percent standard error of the means (SEM) were conducted at various concentrations including 0.5 μm, 1.0 μm, 2.5 μm, 5.0 μm, 10 μm, 15 μm, 20 μm and 25 p.m.

[4] = tested on: ACHN renal carcinoma; test: Anti-proliferative effects on ACHN renal carcinoma at 96 hours of growth; format: cell-based; conditions: 0.5-25 μm, FIGS. 4 and 5
Method: as §1, with “on ACHN renal carcinoma” for “on A375 melanoma”, “FIGS. 4” for “FIGS. 2”, “and 5.” for “and 3.”, “25 μm.” for “25 p.m.”

[5] = tested on: HT1376 colon carcinoma; test: Anti-proliferative effects on HT1376 colon carcinoma at 96 hours of growth; format: cell-based; conditions: 0.5-25 μm, FIGS. 6 and 7
Method: as §1, with “on HT1376 colon carcinoma” for “on A375 melanoma”, “FIGS. 6” for “FIGS. 2”, “and 7.” for “and 3.”, “25 μm.” for “25 p.m.”

SMILES	toxicity [1]	cell kill (MTT absorbance, FIG. 1) ([2]; NuTu-19, 50 μM, after 72 h of incubation)	anticancer activity ([2]; NuTu-19, tested for a period of 72 hours, preliminary)	percent control growth compared to cisplatin and carboplatin [3]	percent control growth compared to carboplatin [4]	percent control growth compared to cisplatin [4]	percent control growth compared to carboplatin and cisplatin [5]
OC1(O)CN2C=CN3Cc4cccc(n4)CN4C=CN(C1)[CH]4[Ag][CH]1N4C=CN1CC(O)(O)CN1C=CN(Cc5cccc(n5)C4)[CH]1[Ag][CH]32 [formula 24]	severe toxicity						
CC(=O)[O][Ag][CH]1N(C)C(Cl)=C(Cl)N1C [formula 23]		kills all cells	shown anticancer activity	best control growth	comparable control growth	better control growth	comparable control growth

— patent US8282944B2, “Metal complexes incorporated within biodegradable nanoparticles and their use” (The University of Akron, priority 2007, dated 2012)
